Several values for one entry are separate records, joined by “and”; a condition that tells them apart may be missing. Identical values can stand only once. Numbers after ± are expanded uncertainties.
Assay: mn = molality of the nth substance listed, in mol/kg
Settings: 101 kPa, Liquid; for mass density: Vibrating tube method; for viscosity: Capillary tube (Ostwald / Ubbelohde) method; for speed of sound: Sing-around technique in a fixed-path interferometer

O=C([O-])CC(O)(CC(=O)[O-])C(=O)[O-].[K+].[K+].[K+] [potassium citrate] + O
Settings | mass density, 303.15 K [kg/m3] | mass density, 308.15 K [kg/m3] | mass density, 313.15 K [kg/m3] | speed of sound, 308.15 K [m/s] | speed of sound, 313.15 K | viscosity, 308.15 K [mPa·s] | viscosity, 313.15 K [mPa·s]
m1 = 0.0472 | – | 1003.5 ± 0.21 | 1001.66 ± 0.21 | 1529 ± 2.1 | 1538.1 ± 2.1 m/s | 0.739 ± 0.009 | 0.665 ± 0.008
m1 = 0.0566 | – | 1005.36 ± 0.21 | 1003.51 ± 0.21 | 1530.8 ± 2.1 | 1539.8 ± 2.1 m/s | 0.741 ± 0.009 | 0.668 ± 0.008
m1 = 0.066 | 1008.87 ± 0.21 | 1007.2 ± 0.21 | 1005.35 ± 0.21 | 1532.5 ± 2.1 | 1541.4 ± 2.1 m/s | 0.744 ± 0.009 | 0.672 ± 0.008
m1 = 0.0754 | 1010.72 ± 0.21 | 1009.04 ± 0.21 | 1007.18 ± 0.21 | 1534.2 ± 2.1 | 1543 ± 2.1 m/s | 0.749 ± 0.009 | 0.675 ± 0.008
m1 = 0.0849 | 1012.58 ± 0.21 | 1010.89 ± 0.21 | 1009.03 ± 0.21 | 1535.9 ± 2.1 | 1544.7 ± 2.1 m/s | 0.754 ± 0.009 | 0.68 ± 0.008
m1 = 0.0943 | 1014.42 ± 0.2 | 1012.72 ± 0.2 | 1010.86 ± 0.21 | 1537.6 ± 2.1 | 1546.4 ± 2.1 m/s | 0.76 ± 0.009 | 0.684 ± 0.008
m1 = 0.2984 | 1052.39 ± 0.2 | 1050.43 ± 0.2 | 1048.42 ± 0.2 | 1572.8 ± 2.1 | 1580.5 ± 2.1 m/s | 0.861 ± 0.01 | 0.783 ± 0.009
m1 = 0.3971 | 1069.63 ± 0.19 | 1067.62 ± 0.19 | 1065.62 ± 0.19 | 1589 ± 2.1 | 1596.5 ± 2.1 m/s | 0.916 ± 0.011 | 0.832 ± 0.01
m1 = 0.4955 | 1086.25 ± 0.19 | 1084.2 ± 0.19 | 1082.12 ± 0.19 | 1605.1 ± 2.1 | 1612 ± 2.1 m/s | 0.975 ± 0.011 | 0.887 ± 0.01
m1 = 0.5936 | 1102.31 ± 0.19 | 1100.17 ± 0.19 | 1098.03 ± 0.19 | 1620.8 ± 2.1 | 1627.4 ± 2.1 m/s | 1.036 ± 0.012 | 0.94 ± 0.011
m1 = 0.7877 | 1132.65 ± 0.19 | 1130.41 ± 0.19 | 1128.2 ± 0.19 | 1651.3 ± 2.1 | 1657.5 ± 2.1 m/s | 1.168 ± 0.013 | 1.063 ± 0.012
m1 = 0.9823 | 1161.02 ± 0.19 | 1158.81 ± 0.19 | 1156.41 ± 0.19 | 1681 ± 2.1 | 1686.1 ± 2.1 m/s | 1.316 ± 0.015 | 1.196 ± 0.014
m1 = 1.175 | 1187.66 ± 0.19 | 1185.33 ± 0.19 | 1182.97 ± 0.19 | 1704 ± 2.2 | 1709.4 ± 2.2 m/s and 1714 ± 2.2 m/s | 1.486 ± 0.017 | 1.351 ± 0.016
m1 = 1.366 | 1212.46 ± 0.2 | 1210.05 ± 0.2 | 1207.69 ± 0.2 | 1731.7 ± 2.2 | 1736.3 ± 2.2 m/s and 1740.3 ± 2.2 m/s | 1.671 ± 0.019 | 1.516 ± 0.017
m1 = 1.555 | 1235.64 ± 0.21 | 1233.31 ± 0.2 | 1230.6 ± 0.2 | 1757.9 ± 2.2 | 1762.1 ± 2.2 m/s and 1765.2 ± 2.2 m/s | 1.875 ± 0.022 | 1.697 ± 0.02
m1 = 1.837 | 1267.94 ± 0.22 | 1265.24 ± 0.22 | 1262.83 ± 0.22 | 1794.7 ± 2.2 | 1797.6 ± 2.2 m/s and 1800.3 ± 2.2 m/s | 2.231 ± 0.026 | 2.013 ± 0.023

From the NIST ThermoML archive (doi:10.1016/j.jct.2010.11.003)
